The source of these data is ChEMBL document CHEMBL1158005, “New 12a-hydroxyrotenoids from gliricidia sepium bark” (J Nat Prod, 1999).

Values after ≈ are worked out from the molar mass of the structure shown.

The term LC50 denotes the concentration that kills 50% of the test population. Read a high LC50 as a less lethal substance.

The nature of this series: Toxicity in Artemia salina larvae after 24 hrs. Type of series: organism-based. To be noted: in vivo.
In turn, `COc1cc2c(cc1OC)[C@]1(O)C(=O)c3ccc(O)cc3O[C@@H]1CO2` showed an LC50 at 24 h of 284 µg/mL (≈ 826 µM).

`COc1ccc2c(c1)OC[C@H]1Oc3cc(O)ccc3C(c3cc([C@@H]4COc5cc(O)ccc5C4)ccc3OC)[C@@]21O` (stereo partly drawn) [GLIRICIDIN]: the LC50 at 24 h was determined as 244 µg/mL (≈ 439 µM).

Regarding `COc1ccc2c(c1)OC[C@H]1Oc3cc(O)ccc3C(=O)[C@@]21O` [GLIRICIDOL], the LC50 at 24 h was 50.7 µg/mL (≈ 161 µM).
